Reference: US20260000656A1, “ANTIFUNGAL AGENTS WITH ENHANCED ACTIVITY IN ACIDIC PH” (Scynexis, Inc., priority 2017, published 2026)
≈ marks a conversion by molar mass, not a printed value. Like-named read-outs stand apart in the source and are kept apart here.

Experiments:
C. albicans isolates = assay: Broth microdilution susceptibility (CLSI M27-A3) at different medium pH; format: cell-based, Candida albicans; conditions: Candida albicans, 24 h, pH 7, C. albicans MRL 34449, pH 7.0, 24 hours; read-out: MIC (100% inhibition)
Method: (§1) Ten strains each of C. glabrata and C. albicans vaginal isolates were tested. The strains were obtained from recent clinical trial patients with vulvovaginal candidiasis (VVC) prior to treatment. Candida strains were obtained from the Mycology Reference Library (MRL) at Case Western Reserve University School of Medicine, Ohio, United States.
(§2) Susceptibility testing was performed using a broth microdilution method, according to CLSI M27-A3 guidelines (CLSI. 2008. Reference Method for Broth Dilution Antifungal Susceptibility Testing of Yeasts; Approved Standard—Third Edition. Clinical and Laboratory Standards Institute, CLSI document M27-A3). Antifungals and concentrations tested were SCY-078 and micafungin (both at concentrations within the range of 0.015 to 8 μg/ml) and fluconazole (at concentrations within the range of 0.125 to 64 μg/ml). A 0.1-ml C. albicans and C. glabrata inoculum of 0.5-2.5×10^3 blastospores/ml in RPMI 1640 medium was added to each microdilution well. ATCC strains of Candida parapsilosis and Candida krusei QC isolates were also included concurrently to ensure quality control. Antifungal susceptibility testing was carried out for each isolate in RPMI 1640 at pH 7 (to mimic RPMI medium used in testing the susceptibility of yeast by the CLSI M-27A3 document), pH 5.7, and pH 4.5 (to mimic the pH of the vaginal cavity) by adjusting the pH of the media using NaOH or HCl. […] Agents Chemother., 43: 1383-1386 (1999).
(§3) […] SCY-078 powder was manufactured by Avista, Laboratories, NC. Micafungin and fluconazole were sourced from LGM Pharma.

C. glabrata isolates = assay: as above; format: cell-based, Candida glabrata; conditions: for MIC50 / MIC90 / MIC: Nakaseomyces glabratus, 24 h; for MIC50: read-out: MIC50; for MIC90: read-out: MIC90
Method: as §1, §2, §3

[1] = pH 4.5, 50% inhibition, pH 4.5, 24 h, 10 vaginal isolates
[2] = pH 4.5, 100% inhibition, pH 4.5, 24 hours, 10 isolates
[3] = pH 5.72, 50% inhibition, pH 5.72, 24 h, 10 vaginal isolates
[4] = pH 5.72, 100% inhibition, pH 5.72, 24 hours, 10 isolates

MIC (C. albicans isolates): 0.5 µg/mL (≈ 0.685 µM)
MIC range (C. glabrata isolates; 50% inhibition, pH 4.5, 24 h, 10 vaginal isolates): 0.031 to 0.063 µg/mL
MIC range (C. glabrata isolates; 50% inhibition, pH 5.72, 24 h, 10 vaginal isolates): 0.5 µg/mL (≈ 0.685 µM)
MIC range (C. glabrata isolates; 50% inhibition, pH 7.0, 24 h, 10 vaginal isolates): 0.5 to 1 µg/mL
MIC range (C. glabrata isolates; 100% inhibition, pH 4.5, 24 hours, 10 isolates): 0.063 to 0.125 µg/mL
MIC range (C. glabrata isolates; 100% inhibition, pH 5.72, 24 hours, 10 isolates): 1 µg/mL (≈ 1.37 µM)
MIC range (C. glabrata isolates; 100% inhibition, pH 7.0, 24 hours, 10 isolates): 1 to 2 µg/mL
reduction in MIC50 at pH 4.5 compared to the MIC50 at pH 7.0 (C. glabrata isolates; C. glabrata isolates): 16 fold
MIC50 (C. glabrata isolates; [1]): 0.063 µg/mL (≈ 0.0863 µM)
MIC90 (C. glabrata isolates; [1]): 0.063 µg/mL (≈ 0.0863 µM)
MIC50 (C. glabrata isolates; [2]): 0.125 µg/mL (≈ 0.171 µM)
MIC90 (C. glabrata isolates; [2]): 0.125 µg/mL (≈ 0.171 µM)
MIC (C. glabrata isolates; pH 4.5, C. glabrata MRL 32075, pH 4.5, 24 hours, read-out: MIC (50% inhibition)): 0.063 µg/mL (≈ 0.0863 µM)
MIC (C. glabrata isolates; pH 4.5, C. glabrata MRL 32075, pH 4.5, 24 hours, read-out: MIC (100% inhibition)): 0.125 µg/mL (≈ 0.171 µM)
MIC (C. glabrata isolates; pH 4.5, C. glabrata MRL 32232, pH 4.5, 24 hours, read-out: MIC (50% inhibition)): 0.063 µg/mL (≈ 0.0863 µM)
MIC (C. glabrata isolates; pH 4.5, C. glabrata MRL 32232, pH 4.5, 24 hours, read-out: MIC (100% inhibition)): 0.125 µg/mL (≈ 0.171 µM)
MIC (C. glabrata isolates; pH 4.5, C. glabrata MRL 32626, pH 4.5, 24 hours, read-out: MIC (50% inhibition)): 0.063 µg/mL (≈ 0.0863 µM)
MIC (C. glabrata isolates; pH 4.5, C. glabrata MRL 32626, pH 4.5, 24 hours, read-out: MIC (100% inhibition)): 0.125 µg/mL (≈ 0.171 µM)
MIC (C. glabrata isolates; pH 4.5, C. glabrata MRL 32993, pH 4.5, 24 hours, read-out: MIC (50% inhibition)): 0.031 µg/mL (≈ 0.0425 µM)
MIC (C. glabrata isolates; pH 4.5, C. glabrata MRL 32993, pH 4.5, 24 hours, read-out: MIC (100% inhibition)): 0.063 µg/mL (≈ 0.0863 µM)
MIC (C. glabrata isolates; pH 4.5, C. glabrata MRL 33204, pH 4.5, 24 hours, read-out: MIC (50% inhibition)): 0.031 µg/mL (≈ 0.0425 µM)
MIC (C. glabrata isolates; pH 4.5, C. glabrata MRL 33204, pH 4.5, 24 hours, read-out: MIC (100% inhibition)): 0.063 µg/mL (≈ 0.0863 µM)
MIC (C. glabrata isolates; pH 4.5, C. glabrata MRL 33960, pH 4.5, 24 hours, read-out: MIC (50% inhibition)): 0.031 µg/mL (≈ 0.0425 µM)
MIC (C. glabrata isolates; pH 4.5, C. glabrata MRL 33960, pH 4.5, 24 hours, read-out: MIC (100% inhibition)): 0.063 µg/mL (≈ 0.0863 µM)
MIC (C. glabrata isolates; pH 4.5, C. glabrata MRL 33961, pH 4.5, 24 hours, read-out: MIC (50% inhibition)): 0.063 µg/mL (≈ 0.0863 µM)
MIC (C. glabrata isolates; pH 4.5, C. glabrata MRL 33961, pH 4.5, 24 hours, read-out: MIC (100% inhibition)): 0.063 µg/mL (≈ 0.0863 µM)
MIC (C. glabrata isolates; pH 4.5, C. glabrata MRL 34339, pH 4.5, 24 hours, read-out: MIC (50% inhibition)): 0.063 µg/mL (≈ 0.0863 µM)
MIC (C. glabrata isolates; pH 4.5, C. glabrata MRL 34339, pH 4.5, 24 hours, read-out: MIC (100% inhibition)): 0.125 µg/mL (≈ 0.171 µM)
MIC (C. glabrata isolates; pH 4.5, C. glabrata MRL 34407, pH 4.5, 24 hours, read-out: MIC (50% inhibition)): 0.063 µg/mL (≈ 0.0863 µM)
MIC (C. glabrata isolates; pH 4.5, C. glabrata MRL 34407, pH 4.5, 24 hours, read-out: MIC (100% inhibition)): 0.125 µg/mL (≈ 0.171 µM)
MIC (C. glabrata isolates; pH 4.5, C. glabrata MRL 34576, pH 4.5, 24 hours, read-out: MIC (50% inhibition)): 0.063 µg/mL (≈ 0.0863 µM)
MIC (C. glabrata isolates; pH 4.5, C. glabrata MRL 34576, pH 4.5, 24 hours, read-out: MIC (100% inhibition)): 0.125 µg/mL (≈ 0.171 µM)
MIC50 (C. glabrata isolates; [3]): 0.5 µg/mL (≈ 0.685 µM)
MIC90 (C. glabrata isolates; [3]): 0.5 µg/mL (≈ 0.685 µM)
MIC50 (C. glabrata isolates; [4]): 1 µg/mL (≈ 1.37 µM)
MIC90 (C. glabrata isolates; [4]): 1 µg/mL (≈ 1.37 µM)
MIC (C. glabrata isolates; pH 5.72, C. glabrata MRL 32075, pH 5.72, 24 hours, read-out: MIC (50% inhibition)): 0.5 µg/mL (≈ 0.685 µM)
MIC (C. glabrata isolates; pH 5.72, C. glabrata MRL 32075, pH 5.72, 24 hours, read-out: MIC (100% inhibition)): 1 µg/mL (≈ 1.37 µM)
MIC (C. glabrata isolates; pH 5.72, C. glabrata MRL 32232, pH 5.72, 24 hours, read-out: MIC (50% inhibition)): 0.5 µg/mL (≈ 0.685 µM)
MIC (C. glabrata isolates; pH 5.72, C. glabrata MRL 32232, pH 5.72, 24 hours, read-out: MIC (100% inhibition)): 1 µg/mL (≈ 1.37 µM)
Compound: CC(C)[C@@H](C)[C@@]1(C)CC[C@]2(C)[C@H]3CC[C@@H]4[C@@]5(COC[C@]4(C)[C@@H](OC[C@](C)(N)C(C)(C)C)[C@H](n4ncnc4-c4ccncc4)C5)C3=CC[C@@]2(C)[C@@H]1C(=O)O [SCY-078]
